Results reported in the kinase profiling compilation of Christmann-Franck et al. (2016).
Values joined by “and” are separate entries in the source; they are usually repeats but may differ in a detail not shown here. Equal entries are not always repeated.

Legend:
Assay in all cases: Caliper, Mobility shift assay off-chip
[1] = target: PAK4 (human) (UniProt O96013)
[2] = target: CAMK4 (human) (UniProt Q16566)
[3] = target: MST1R (human) (UniProt Q04912)
[4] = target: PRKAA1 (human) (UniProt Q13131); settings: compound 0.2 µM
[5] = target: PIM1 (human) (UniProt P11309)
[6] = target: CAMK1 (human) (UniProt Q14012)
[7] = target: PASK (human) (UniProt Q96RG2)
Sequence of PASK (human) (Q96RG2 whole entry, looked up): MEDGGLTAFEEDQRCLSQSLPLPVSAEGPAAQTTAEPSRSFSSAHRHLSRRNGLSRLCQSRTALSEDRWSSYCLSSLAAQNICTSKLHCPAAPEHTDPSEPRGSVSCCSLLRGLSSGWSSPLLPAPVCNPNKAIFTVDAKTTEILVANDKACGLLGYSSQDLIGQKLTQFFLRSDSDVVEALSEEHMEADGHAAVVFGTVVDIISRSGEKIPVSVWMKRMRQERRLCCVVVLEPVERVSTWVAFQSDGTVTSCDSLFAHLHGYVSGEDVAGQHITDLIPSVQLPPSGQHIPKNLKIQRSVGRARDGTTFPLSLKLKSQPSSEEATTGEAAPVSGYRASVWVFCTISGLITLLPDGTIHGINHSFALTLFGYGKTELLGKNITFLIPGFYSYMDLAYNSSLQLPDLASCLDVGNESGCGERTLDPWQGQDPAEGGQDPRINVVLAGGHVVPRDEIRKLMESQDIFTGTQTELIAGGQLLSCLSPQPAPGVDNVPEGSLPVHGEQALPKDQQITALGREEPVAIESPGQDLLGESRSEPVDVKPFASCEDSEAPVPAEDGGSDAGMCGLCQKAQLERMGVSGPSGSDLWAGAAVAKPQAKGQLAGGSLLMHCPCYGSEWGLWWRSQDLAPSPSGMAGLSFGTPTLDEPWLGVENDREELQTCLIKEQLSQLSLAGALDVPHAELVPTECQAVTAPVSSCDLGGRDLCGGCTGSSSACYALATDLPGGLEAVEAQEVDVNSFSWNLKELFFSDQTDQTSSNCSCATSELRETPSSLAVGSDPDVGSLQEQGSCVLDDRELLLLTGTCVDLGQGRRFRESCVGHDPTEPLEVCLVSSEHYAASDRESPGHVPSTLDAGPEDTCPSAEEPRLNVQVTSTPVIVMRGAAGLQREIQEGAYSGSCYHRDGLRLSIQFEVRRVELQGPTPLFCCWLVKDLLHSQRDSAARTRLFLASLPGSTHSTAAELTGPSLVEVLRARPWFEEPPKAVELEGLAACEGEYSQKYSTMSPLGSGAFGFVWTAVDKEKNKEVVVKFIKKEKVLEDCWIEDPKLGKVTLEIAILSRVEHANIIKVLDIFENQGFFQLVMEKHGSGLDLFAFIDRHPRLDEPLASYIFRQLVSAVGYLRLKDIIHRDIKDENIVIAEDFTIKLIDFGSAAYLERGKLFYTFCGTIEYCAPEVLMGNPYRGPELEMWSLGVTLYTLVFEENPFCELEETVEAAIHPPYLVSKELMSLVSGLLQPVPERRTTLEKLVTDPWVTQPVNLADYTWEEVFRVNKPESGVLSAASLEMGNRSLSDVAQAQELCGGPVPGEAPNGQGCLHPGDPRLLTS

[8] = target: CLK3 (human) (UniProt P49761)
[9] = target: TEK (human) (UniProt Q02763)
Sequence of TEK (human) (Q02763 whole entry, looked up): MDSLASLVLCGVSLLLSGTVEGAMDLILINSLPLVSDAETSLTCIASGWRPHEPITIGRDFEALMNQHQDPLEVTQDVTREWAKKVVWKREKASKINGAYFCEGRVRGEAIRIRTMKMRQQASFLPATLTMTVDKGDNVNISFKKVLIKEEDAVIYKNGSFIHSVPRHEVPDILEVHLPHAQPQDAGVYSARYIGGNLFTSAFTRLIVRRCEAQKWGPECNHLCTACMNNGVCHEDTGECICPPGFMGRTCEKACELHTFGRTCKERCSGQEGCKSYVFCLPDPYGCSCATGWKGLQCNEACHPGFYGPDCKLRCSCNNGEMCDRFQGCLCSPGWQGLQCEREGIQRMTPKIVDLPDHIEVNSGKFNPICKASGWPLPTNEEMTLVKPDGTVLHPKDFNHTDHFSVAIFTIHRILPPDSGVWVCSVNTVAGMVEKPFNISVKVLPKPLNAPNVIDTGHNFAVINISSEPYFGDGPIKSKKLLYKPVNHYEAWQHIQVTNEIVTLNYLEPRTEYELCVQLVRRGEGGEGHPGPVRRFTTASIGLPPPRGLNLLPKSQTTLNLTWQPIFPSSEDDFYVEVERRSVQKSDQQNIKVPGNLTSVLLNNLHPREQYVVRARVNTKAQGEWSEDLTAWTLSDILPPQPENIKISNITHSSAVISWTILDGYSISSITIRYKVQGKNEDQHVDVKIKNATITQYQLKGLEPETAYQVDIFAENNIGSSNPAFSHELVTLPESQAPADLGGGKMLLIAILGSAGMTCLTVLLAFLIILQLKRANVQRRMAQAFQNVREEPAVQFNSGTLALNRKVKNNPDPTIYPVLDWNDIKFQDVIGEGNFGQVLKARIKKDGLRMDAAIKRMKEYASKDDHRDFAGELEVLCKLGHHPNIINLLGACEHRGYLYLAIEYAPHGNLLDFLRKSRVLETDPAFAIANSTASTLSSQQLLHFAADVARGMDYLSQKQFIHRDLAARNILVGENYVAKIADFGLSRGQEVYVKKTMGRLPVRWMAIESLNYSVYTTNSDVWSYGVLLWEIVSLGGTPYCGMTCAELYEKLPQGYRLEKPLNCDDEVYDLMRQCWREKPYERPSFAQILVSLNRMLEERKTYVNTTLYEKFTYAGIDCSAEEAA

[10] = target: PRKACA (human) (UniProt P17612)
[11] = target: EPHA4 (human) (UniProt P54764)
[12] = target: CSNK1D (human) (UniProt P48730)
Sequence of CSNK1D (human) (P48730 whole entry, looked up): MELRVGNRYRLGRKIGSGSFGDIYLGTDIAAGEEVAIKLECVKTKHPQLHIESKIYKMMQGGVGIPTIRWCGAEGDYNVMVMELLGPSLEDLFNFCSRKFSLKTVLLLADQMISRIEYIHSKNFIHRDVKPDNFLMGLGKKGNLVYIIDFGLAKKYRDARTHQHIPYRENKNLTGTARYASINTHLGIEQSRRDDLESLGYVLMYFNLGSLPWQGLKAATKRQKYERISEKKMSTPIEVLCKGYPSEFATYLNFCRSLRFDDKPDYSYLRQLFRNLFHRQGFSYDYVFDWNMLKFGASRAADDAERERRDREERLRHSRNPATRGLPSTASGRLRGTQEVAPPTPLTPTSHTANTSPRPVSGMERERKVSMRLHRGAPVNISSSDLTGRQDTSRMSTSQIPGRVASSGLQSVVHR

[13] = target: DDR1 (human) (UniProt Q08345)
[14] = target: PRKAA2 (human) (UniProt P54646)
[15] = target: MAPK7 (human) (UniProt Q13164)
[16] = target: MUSK (human) (UniProt O15146)
[17] = target: RPS6KB2 (human) (UniProt Q9UBS0)
[18] = target: FGFR3 (human) (UniProt P22607)
[19] = target: EEF2K (human) (UniProt O00418)
Sequence of EEF2K (human) (O00418 whole entry, looked up): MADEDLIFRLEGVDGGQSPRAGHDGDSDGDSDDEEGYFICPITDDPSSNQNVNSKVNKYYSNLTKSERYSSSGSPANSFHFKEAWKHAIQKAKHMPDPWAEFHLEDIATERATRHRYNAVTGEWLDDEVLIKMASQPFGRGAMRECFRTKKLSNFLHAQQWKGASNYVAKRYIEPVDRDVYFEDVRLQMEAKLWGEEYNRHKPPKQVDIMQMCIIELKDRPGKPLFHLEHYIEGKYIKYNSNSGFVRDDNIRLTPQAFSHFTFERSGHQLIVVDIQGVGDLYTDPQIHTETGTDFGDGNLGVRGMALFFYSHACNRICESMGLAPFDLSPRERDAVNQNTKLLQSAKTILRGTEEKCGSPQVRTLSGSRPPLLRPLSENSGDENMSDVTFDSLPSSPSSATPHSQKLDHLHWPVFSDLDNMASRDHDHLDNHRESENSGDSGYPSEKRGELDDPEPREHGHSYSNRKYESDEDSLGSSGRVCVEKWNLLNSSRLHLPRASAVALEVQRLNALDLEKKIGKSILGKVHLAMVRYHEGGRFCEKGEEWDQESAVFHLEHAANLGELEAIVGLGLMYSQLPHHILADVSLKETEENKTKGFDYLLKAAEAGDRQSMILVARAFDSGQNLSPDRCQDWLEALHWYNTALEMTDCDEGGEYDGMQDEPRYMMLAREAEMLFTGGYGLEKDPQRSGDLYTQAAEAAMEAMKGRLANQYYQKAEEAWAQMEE

[20] = target: ALK EML4 (human) (UniProt Q9HC35+Q9UM73)
[21] = target: CLK2 (human) (UniProt P49760)
Sequence of CLK2 (human) (P49760 whole entry, looked up): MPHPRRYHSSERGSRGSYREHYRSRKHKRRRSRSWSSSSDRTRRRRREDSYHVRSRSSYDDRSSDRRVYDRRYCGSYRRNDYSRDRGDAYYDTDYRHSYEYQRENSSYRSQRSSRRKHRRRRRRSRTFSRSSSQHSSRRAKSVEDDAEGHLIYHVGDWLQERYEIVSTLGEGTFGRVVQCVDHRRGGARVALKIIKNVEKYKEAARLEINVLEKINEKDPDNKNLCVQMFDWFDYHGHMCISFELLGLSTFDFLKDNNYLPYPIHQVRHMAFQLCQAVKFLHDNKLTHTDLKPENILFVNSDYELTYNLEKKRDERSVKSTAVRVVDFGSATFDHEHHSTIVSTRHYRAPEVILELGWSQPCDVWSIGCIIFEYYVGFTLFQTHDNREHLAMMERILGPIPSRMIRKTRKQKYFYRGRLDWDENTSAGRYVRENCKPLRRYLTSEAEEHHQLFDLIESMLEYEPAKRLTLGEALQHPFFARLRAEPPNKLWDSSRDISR

[22] = target: RPS6KA5 KD1 KD2 (human) (UniProt O75582)
[23] = target: SYK (human) (UniProt P43405)
[24] = target: NEK7 (human) (UniProt Q8TDX7)
Sequence of NEK7 (human) (Q8TDX7 whole entry, looked up): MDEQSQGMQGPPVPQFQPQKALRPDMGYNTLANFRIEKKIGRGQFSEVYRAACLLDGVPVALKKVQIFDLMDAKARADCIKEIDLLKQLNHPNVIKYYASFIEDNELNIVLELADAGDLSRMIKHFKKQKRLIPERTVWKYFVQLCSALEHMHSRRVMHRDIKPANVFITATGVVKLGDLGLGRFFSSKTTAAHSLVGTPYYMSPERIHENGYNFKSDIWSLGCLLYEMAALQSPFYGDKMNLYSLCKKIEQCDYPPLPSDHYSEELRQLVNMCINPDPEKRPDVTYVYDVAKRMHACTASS

[25] = target: NUAK1 (human) (UniProt O60285)
Sequence of NUAK1 (human) (O60285 whole entry, looked up): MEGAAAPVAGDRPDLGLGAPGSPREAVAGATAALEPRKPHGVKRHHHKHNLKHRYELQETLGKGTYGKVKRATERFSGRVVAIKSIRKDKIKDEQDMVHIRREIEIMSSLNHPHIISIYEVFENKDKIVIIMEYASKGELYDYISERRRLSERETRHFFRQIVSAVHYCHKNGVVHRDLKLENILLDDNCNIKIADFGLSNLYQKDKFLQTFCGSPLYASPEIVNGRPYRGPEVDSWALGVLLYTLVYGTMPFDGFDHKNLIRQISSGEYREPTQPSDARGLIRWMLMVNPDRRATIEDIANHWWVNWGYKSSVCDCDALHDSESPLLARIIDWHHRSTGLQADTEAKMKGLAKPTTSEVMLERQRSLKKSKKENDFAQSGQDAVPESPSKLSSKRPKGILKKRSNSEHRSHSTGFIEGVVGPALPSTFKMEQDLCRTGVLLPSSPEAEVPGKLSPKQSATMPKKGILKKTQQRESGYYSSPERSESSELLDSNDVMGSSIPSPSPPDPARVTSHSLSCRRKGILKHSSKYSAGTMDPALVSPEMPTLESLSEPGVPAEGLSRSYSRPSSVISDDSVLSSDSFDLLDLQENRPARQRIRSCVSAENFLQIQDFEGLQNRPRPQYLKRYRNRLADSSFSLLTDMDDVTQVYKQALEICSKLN

[26] = target: MAPK9 (human) (UniProt P45984)
[27] = target: MELK (human) (UniProt Q14680)
[28] = target: CDK2 (human) (UniProt P24941)
[29] = target: PIM2 (human) (UniProt Q9P1W9)
[30] = target: CDC42BPA (human) (UniProt Q5VT25)
[31] = target: MYLK2 (human) (UniProt Q9H1R3)
[32] = target: ALK (human) (UniProt Q9UM73)
[33] = target: NUAK2 (human) (UniProt Q9H093)
[34] = target: PDK2 (human) (UniProt Q15119)

SMILES: COc1cc2c(Oc3ccc4[nH]c(C)cc4c3F)ncnc2cc1OCCCN1CCCC1
- inhibition ([1]; compound 0.02 µM): 6.5%
- inhibition ([1]; compound 0.2 µM): 0%
- inhibition ([2]; compound 0.02 µM): -4%
- inhibition ([2]; compound 0.2 µM): -0.6%
- inhibition ([3]; compound 0.02 µM): 4.9%
- inhibition ([3]; compound 0.2 µM): 10.8%
- inhibition [4]: 7.1%
- inhibition ([5]; compound 0.02 µM): -2.8%
- inhibition ([5]; compound 0.2 µM): -8.3%
- inhibition ([6]; compound 0.02 µM): -3.1%
- inhibition ([6]; compound 0.2 µM): -3.1%
- inhibition ([7]; compound 0.02 µM): -4.3%
- inhibition ([7]; compound 0.2 µM): 0.3%
- inhibition ([8]; compound 0.02 µM): 11.9%
- inhibition ([8]; compound 0.2 µM): -4.2%
- inhibition ([9]; compound 0.02 µM): 5.8%
- inhibition ([9]; compound 0.2 µM): 48.5%
- inhibition ([10]; compound 0.02 µM): -2.9%
- inhibition ([10]; compound 0.2 µM): -4.8%
- inhibition ([11]; compound 0.02 µM): -4.1%
- inhibition ([11]; compound 0.2 µM): -2.4%
- inhibition ([12]; compound 0.02 µM): -3.7% and -4.3%
- inhibition ([12]; compound 0.2 µM): -3.5% and -3.9%
- inhibition ([13]; compound 0.02 µM): 25.7%
- inhibition ([13]; compound 0.2 µM): 95.3%
- inhibition ([14]; compound 0.02 µM): 5.1%
- inhibition ([14]; compound 0.2 µM): 6%
- inhibition ([15]; compound 0.02 µM): -8.6%
- inhibition ([15]; compound 0.2 µM): -6.2%
- inhibition ([16]; compound 0.02 µM): -4.8%
- inhibition ([16]; compound 0.2 µM): -1.6%
- inhibition ([17]; compound 0.02 µM): 1%
- inhibition ([17]; compound 0.2 µM): 0.6%
- inhibition ([18]; compound 0.02 µM): 72.3%
- inhibition ([18]; compound 0.2 µM): 96.5%
- inhibition ([19]; compound 0.02 µM): -5.2%
- inhibition ([19]; compound 0.2 µM): 3.1%
- inhibition ([20]; compound 0.02 µM): -1.4%
- inhibition ([20]; compound 0.2 µM): 0.1%
- inhibition ([21]; compound 0.02 µM): 0.3%
- inhibition ([21]; compound 0.2 µM): 1.1%
- inhibition ([22]; compound 0.02 µM): -4.9%
- inhibition ([22]; compound 0.2 µM): -7.3%
- inhibition ([23]; compound 0.02 µM): -4.7%
- inhibition ([23]; compound 0.2 µM): -3.5%
- inhibition ([24]; compound 0.02 µM): -3.6%
- inhibition ([24]; compound 0.2 µM): -4%
- inhibition ([25]; compound 0.02 µM): 8.9%
- inhibition ([25]; compound 0.2 µM): -13.6%
- inhibition ([26]; compound 0.02 µM): -9.4%
- inhibition ([26]; compound 0.2 µM): -7.7%
- inhibition ([27]; compound 0.02 µM): 6.6%
- inhibition ([27]; compound 0.2 µM): 10%
- inhibition ([28]; compound 0.02 µM): 1% and -0.2%
- inhibition ([28]; compound 0.2 µM): -3% and -3.9%
- inhibition ([29]; compound 0.02 µM): 6.1%
- inhibition ([29]; compound 0.2 µM): 8.8%
- inhibition ([30]; compound 0.02 µM): 3.4%
- inhibition ([30]; compound 0.2 µM): 14.9%
- inhibition ([31]; compound 0.02 µM): -2.3%
- inhibition ([31]; compound 0.2 µM): -2.4%
- inhibition ([32]; compound 0.02 µM): 5.8%
- inhibition ([32]; compound 0.2 µM): 10.6%
- inhibition ([33]; compound 0.02 µM): 8.9%
- inhibition ([33]; compound 0.2 µM): -17.5%
- inhibition ([34]; compound 0.02 µM): -2.7%
- inhibition ([34]; compound 0.2 µM): -4.9%
